Columns and labels:
[1] = biological target: T1, Replicase polyprotein 1ab (Severe acute respiratory syndrome coronavirus, UniProt P0C6X7); experiment: Inhibition of ATPase activity of SARS coronavirus helicase assessed as phosphate release by malachite green assay
[2] = biological target: T1, Replicase polyprotein 1ab; experiment: Inhibition of SARS coronavirus helicase assessed as duplex-DNA unwinding by FRET based assay

O=c1c(O)ccc2oc(CNCc3ccc(Cl)cc3)cc(O)c1-2 [2-[(4-Chloro-benzylamino)-methyl]-5,6-dihydroxy-chromen-4-one]
IC50 [1]: > 50 µM
IC50 [2]: > 50 µM

N#Cc1cccc(CNCc2cc(O)c3c(=O)c(O)ccc-3o2)c1 [3-{[(5,6-Dihydroxy-4-oxo-4H-chromen-2-ylmethyl)-amino]-methyl}-benzonitrile]
IC50 [1]: > 50 µM
IC50 [2]: > 50 µM

O=c1c(O)ccc2oc(CNCc3cccc(Cl)c3)cc(O)c1-2 [2-[(3-Chloro-benzylamino)-methyl]-5,6-dihydroxy-chromen-4-one]
IC50 [1]: > 50 µM
IC50 [2]: > 50 µM

— BindingDB's records for doi:10.1016/j.bmcl.2009.07.009 (Konkuk University, 2009)
